In ChEMBL document CHEMBL1201862, “PubChem BioAssay data set” (2004):
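Five concentrations, 48 hours, 96-well plates. The concentration for 50% growth inhibition is given as GI50.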 Active and inactive are the calls of the source. No stated cut-off is given here; in the data, active = GI50 up to about 1.1 µM and inactive = higher.

Key:
Experiment in all cases: DTP human tumour cell line panel, 48 h
HOP-18 = tested on: HOP-18
DMS-114 = tested on: DMS-114
DMS-273 = tested on: DMS-273
DLD-1 = tested on: DLD-1
SNB-78 = tested on: SNB-78
M19-MEL = tested on: M19-MEL
LXFL 529 = tested on: LXFL 529
XF498 = tested on: XF498
RXF 631 = tested on: RXF 631

| SMILES | GI50 (HOP-18) | GI50 (DMS-114) | GI50 (DMS-273) | GI50 (DLD-1) | GI50 (SNB-78) | GI50 (M19-MEL) | GI50 (LXFL 529) | GI50 (XF498) | GI50 (RXF 631) |
| --- | --- | --- | --- | --- | --- | --- | --- | --- | --- |
| Cc1nc(-n2nc(-c3ccccc3)cc2-c2ccccc2)sc1C(=O)/C=C/c1ccc(Cl)cc1 | 14.4 µM (inactive) | 11.4 µM (inactive) | 28.5 µM (inactive) | 13.2 µM (inactive) | 46 µM (inactive) | 18.4 µM (inactive) | – | – | – |
| O=C(c1ccc(Cl)cc1)c1cnc(Nc2ccccc2Cl)s1 | – | 24.7 µM (inactive) | 20.1 µM (inactive) | 28.5 µM (inactive) | – | 34.1 µM (inactive) | 16.3 µM (inactive) | – | – |
| COc1ccc(CC2NCCc3cc(OC)c(OC)cc32)cc1Br (configuration not stated) | 23.1 µM (inactive) | 17.6 µM (inactive) | 22.4 µM (inactive) | 66.7 µM (inactive) | 42.4 µM (inactive) | 20.7 µM (inactive) | 26.9 µM (inactive) | 11.9 µM (inactive) | – |
| Nc1nc(F)nc2c1ncn2C1OC(COP(=O)(O)O)C(O)C1O (configuration not stated) | 63.2 µM (inactive) | 10.7 µM (inactive) | 225 µM (inactive) | 101 µM (inactive) | 186 µM (inactive) | 46.1 µM (inactive) | – | 66.8 µM (inactive) | – |
| COc1cc2c(c(OC)c1OC)-c1ccc(SC)c(=O)cc1C(CO)C2 (configuration not stated) | 24.8 µM (inactive) | 0.0791 µM (active) | 0.0614 µM (active) | 0.169 µM (active) | 0.0966 µM (active) | 0.15 µM (active) | 0.136 µM (active) | 0.149 µM (active) | < 0.01 µM (active) |
| CN(C)[C@H]1CC[C@H]2[C@@H]3CCC4C[C@@H](NC(=O)NC(Cc5ccccc5)c5nccs5)CC[C@]4(C)[C@H]3CC[C@]12C (some centres not stated) | – | 1.79 µM (inactive) | 1.94 µM (inactive) | 1.74 µM (inactive) | – | 1.85 µM (inactive) | 0.488 µM (active) | 1.2 µM (inactive) | 1.92 µM (inactive) |
| CCCCCC1CC=CC(NC(=O)OCc2ccccc2)C1/C=C/CCCC1OCCO1 (configuration not stated) | > 100 µM (inactive) | 21.4 µM (inactive) | 36.2 µM (inactive) | > 66.5 µM (inactive) | > 100 µM (inactive) | > 91.4 µM (inactive) | 40.6 µM (inactive) | 52 µM (inactive) | 48.3 µM (inactive) |
| [N-]=[N+]=NC(c1cn(C2CC(O)C(CO)O2)c(=O)[nH]c1=O)C(I)I (configuration not stated) | 2.23 µM (inactive) | > 100 µM (inactive) | > 100 µM (inactive) | > 100 µM (inactive) | > 100 µM (inactive) | > 100 µM (inactive) | > 100 µM (inactive) | – | – |
| O=CC(O)C(O)C(O)COc1cc(CO)cc2c1C(=O)c1ccccc1C2=O (configuration not stated) | > 100 µM (inactive) | > 89.5 µM (inactive) | > 100 µM (inactive) | > 100 µM (inactive) | > 100 µM (inactive) | 37.6 µM (inactive) | > 100 µM (inactive) | > 100 µM (inactive) | > 100 µM (inactive) |
| C/C(=N\NC(=O)c1ccccc1O)C1=CNc2ccccc2S1 | 6.25 µM (inactive) | – | 3.1 µM (inactive) | 4.23 µM (inactive) | 7.94 µM (inactive) | 7.53 µM (inactive) | 0.875 µM (active) | 3.99 µM (inactive) | – |
| Cn1ncc(=S)[nH]c1=S | 47.6 µM (inactive) | > 100 µM (inactive) | > 100 µM (inactive) | > 100 µM (inactive) | > 100 µM (inactive) | > 100 µM (inactive) | > 100 µM (inactive) | > 100 µM (inactive) | > 100 µM (inactive) |
| CCCCCn1cnc2c1S(=O)(=O)N(C)C(NC(=O)c1ccccc1)=N2 | – | > 100 µM (inactive) | > 100 µM (inactive) | > 100 µM (inactive) | > 100 µM (inactive) | > 100 µM (inactive) | > 100 µM (inactive) | – | – |
| CN(C)C(=N)NC(N)=S | > 100 µM (inactive) | > 100 µM (inactive) | > 100 µM (inactive) | > 100 µM (inactive) | > 100 µM (inactive) | > 100 µM (inactive) | > 100 µM (inactive) | > 100 µM (inactive) | > 100 µM (inactive) |
| COc1ccc(N2C(=O)c3c(c4[nH]c5ccccc5c4c4ccc(C(C)(C)C)cc34)C2=O)cc1 | 58.1 µM (inactive) | > 100 µM (inactive) | 41.3 µM (inactive) | > 100 µM (inactive) | 25.7 µM (inactive) | 50.9 µM (inactive) | 78.5 µM (inactive) | 20.7 µM (inactive) | 40.6 µM (inactive) |
| Cc1ccc(S(=O)(=O)NNS(C)(=O)=O)cc1 | – | > 100 µM (inactive) | > 100 µM (inactive) | > 100 µM (inactive) | – | > 100 µM (inactive) | > 100 µM (inactive) | – | – |
| CCOc1ccccc1NC(=O)CCc1n[nH]c(=S)o1 | – | – | > 100 µM (inactive) | > 100 µM (inactive) | > 100 µM (inactive) | > 100 µM (inactive) | > 100 µM (inactive) | > 100 µM (inactive) | – |
| Cc1cccc(-c2nnc(S)[nH]2)c1 | > 100 µM (inactive) | – | > 100 µM (inactive) | > 100 µM (inactive) | > 100 µM (inactive) | > 100 µM (inactive) | > 100 µM (inactive) | > 100 µM (inactive) | > 100 µM (inactive) |
| Nc1nc(SCc2ccc([N+](=O)[O-])cc2)nc2c1ncn2C1OC(CO)C(O)C1O (configuration not stated) | – | > 100 µM (inactive) | > 100 µM (inactive) | > 100 µM (inactive) | > 100 µM (inactive) | > 100 µM (inactive) | 78.5 µM (inactive) | > 100 µM (inactive) | – |
| CC(=O)c1cccc(NC(=O)C(=O)NNc2nnc(S)n2N)c1 | 11.8 µM (inactive) | 1.85 µM (inactive) | 5.55 µM (inactive) | 7.38 µM (inactive) | 11.3 µM (inactive) | 0.805 µM (active) | 10.7 µM (inactive) | 12.7 µM (inactive) | 3.01 µM (inactive) |
| CCOC(=O)C1Oc2ccc([N+](=O)[O-])cc2C1(C)O (configuration not stated) | – | > 100 µM (inactive) | > 100 µM (inactive) | > 100 µM (inactive) | > 100 µM (inactive) | > 100 µM (inactive) | > 100 µM (inactive) | > 100 µM (inactive) | – |
| C=CCOC1=C2CC[C@H](O)[C@@]2(C)CCC1=O | > 100 µM (inactive) | > 100 µM (inactive) | > 100 µM (inactive) | > 100 µM (inactive) | > 100 µM (inactive) | > 100 µM (inactive) | > 100 µM (inactive) | – | – |
| O=S1(=O)c2ccccc2N=C(c2ccccc2Cl)CC1c1ccc(F)cc1 (configuration not stated) | 9.62 µM (inactive) | 19.7 µM (inactive) | 22.3 µM (inactive) | 15.2 µM (inactive) | 19.1 µM (inactive) | 17.7 µM (inactive) | 17.8 µM (inactive) | 15.6 µM (inactive) | – |
| CC(=O)OCC1OC(n2c(=S)n(-c3ccccc3)c(=O)c3cc(Br)ccc32)C(OC(C)=O)C(OC(C)=O)C1OC(C)=O (configuration not stated) | – | > 100 µM (inactive) | > 100 µM (inactive) | > 100 µM (inactive) | – | > 100 µM (inactive) | > 100 µM (inactive) | – | > 100 µM (inactive) |
| Cc1noc(C)c1C1=CCCCc2ccccc21 | > 100 µM (inactive) | > 100 µM (inactive) | > 100 µM (inactive) | > 100 µM (inactive) | > 100 µM (inactive) | 90.2 µM (inactive) | 85.5 µM (inactive) | – | – |
| CC1=Nn2c(nnc2-c2ccccc2Cl)NC(C)(C)C1 | – | – | > 100 µM (inactive) | 54.7 µM (inactive) | > 100 µM (inactive) | > 100 µM (inactive) | 63.7 µM (inactive) | > 100 µM (inactive) | – |
| C=CC/C=C/C/C=C/CCCCCCCc1cccc(O)c1C(=O)O | 17.3 µM (inactive) | > 100 µM (inactive) | 45.4 µM (inactive) | 35 µM (inactive) | > 100 µM (inactive) | 43.9 µM (inactive) | 36.1 µM (inactive) | > 100 µM (inactive) | > 100 µM (inactive) |
